Laboratory results reported in patent US20150125515A1, “NOVEL SP-B & SP-C PEPTIDES, SYNTHETIC LUNG SURFACTANTS, AND USE THEREOF” (UNIVERSITY OF ROCHESTER, priority 2012, published 2015).
Bridges are numbered along the chain shown (N, C = ends). Roman numbers before positions name the chains, in order. Where no end group is shown, it is not given here.

Assays:
[1] = Adsorption of surfactant compositions to the air-water interface (surface pressure vs time, Wilhelmy method); type: physicochemical; conditions: for adsorption compared with lung surfactant (CLSE in Table 7): 3% by weight peptide with 5:3:2 (molar ratio) DPPC:POPC:POPG; for adsorption, result in words: peptide 3% by weight with synthetic ester linked phospholipids 5:3:2 DPPC:POPC:POPG
Method: Surface activity of synthetic peptide/lipid surfactant compositions was assessed by either or both of the following methods: (1) measurement of the adsorption of surfactant compositions to the air-water interface as a function of time, and (2) measurement of overall dynamic surface activity on a pulsating bubble surfactometer (general methodological details of these two experimental techniques are described by Notter, Lung Surfactants: Basic Science and Clinical Applications, Marcel Dekker, Inc, New York (2000), which is hereby incorporated by reference in its entirety).
In adsorption studies, a given surfactant mixture was injected at time zero beneath the surface of a stirred surfactant-free subphase, and surface pressure (defined as surface tension lowering below that of the pure subphase) was measured as a function of time from the force on a hanging platinum slide (“Wilhelmy” method). By definition, higher surface pressure corresponds to lower surface tension (Notter, Lung Surfactants: Basic Science and Clinical Applications, Marcel Dekker, Inc, New York (2000)).

[2] = tested on: ventilated rabbits with ARDS induced by saline lavage; assay: Saline-lavage ventilated rabbit model of ARDS: arterial oxygenation and dynamic compliance; type: in vivo, New Zealand white rabbits; conditions: for Oxygenation and lung compliance after instillation (FIG. 1): SP-B mimics 3.0% by weight in 5:3:2 (weight ratio) DPPC:POPC:POPG; for Oxygenation and lung compliance after instillation (FIG. 1) / Oxygenation and lung compliance after instillation (FIG. 2): PBS pH 7.4, 35 mg/mL; for Oxygenation and lung compliance after instillation (FIG. 1) / relative order of pulmonary activity in terms of oxygenation / relative pulmonary activity with respect to lung compliance / Oxygenation and lung compliance after instillation (FIG. 2) / relative order of pulmonary activity in terms of oxygenation and lung compliance: intratracheal 100 mg/kg; for Oxygenation and lung compliance after instillation (FIG. 1) / relative order of pulmonary activity in terms of oxygenation / relative pulmonary activity with respect to lung compliance: over 120 min; for relative order of pulmonary activity in terms of oxygenation / relative pulmonary activity with respect to lung compliance: SP-B mimics 3.0% by weight in 5:3:2 DPPC:POPC:POPG; for Oxygenation and lung compliance after instillation (FIG. 2): SP-C mimics 3.0% by weight in 5:3:2 (weight ratio) DPPC:POPC:POPG; for relative order of pulmonary activity in terms of oxygenation and lung compliance: SP-C mimics 3.0% by weight in 5:3:2 DPPC:POPC:POPG
Method: Saline lavage produces surfactant deficiency, alveolar collapse and lung edema in ventilated rats and rabbits, and is a useful experimental model for human ARDS. A saline-lavage rabbit model for lung injury was thus used to compare synthetic surfactants, with lipids only as negative control. Restoration of lung function was assessed by serial monitoring of gas exchange and lung mechanics. Physiological activity results for selected synthetic SP-B peptides are shown below, and physiological activity results for selected synthetic SP-C peptides are included in following Example 8.
Animal experiments were performed following established protocols approved by the Animal Care and Use Committee at the Los Angeles Biomedical Research Institute at Harbor-UCLA Medical Center. […] In brief, experimental animals were commercially available young adult male New Zealand white rabbits whose respiratory function was followed during mechanical ventilation by measurements of serial arterial blood gases and pulmonary compliance over the first 2 hours after a standardized saline lavage protocol. For this timeframe of study, the model reflected a relatively pure state of surfactant insufficiency in animals with mature lungs. Saline lavage administration was performed after induction of anesthesia, insertion of a venous line in a marginal ear vein, endotracheal intubation and initiation of mechanical ventilation, muscle paralysis, and insertion of a carotid arterial line. Heart rate, arterial blood pressure and rectal temperature were measured continuously. After stabilization on the ventilator, saline lavage was performed with repeated intratracheal instillation and removal of 30 mL of normal saline until the PaO2 dropped below 100 mm Hg (average 3 lavages). Maintenance fluid was provided by a continuous infusion of Lactated Ringer's solution at a rate of 10 ml/kg/h. Edema fluid appearing in the trachea was removed by suctioning. When the PaO2 was stable at less than 100 mm Hg in saline lavaged animals, an experimental or control surfactant mixture was instilled into the trachea at a dose of 100 mg/kg body weight and a concentration of 35 mg/mL. The rabbits were ventilated using a Harvard volume-controlled animal ventilator (tidal volume 7.5 ml/kg, a positive end-expiratory pressure [PEEP] of 3 cm H2O, an inspiratory/expiratory ratio of 1:2, 100% oxygen, and a respiratory rate to maintain a PaCO2 at ˜40 mm Hg). Airway flow and pressures and tidal volume were monitored continuously with a pneumotachograph connected to the endotracheal tube and a pneumotach system. Arterial pH and blood gases were done every 15 minutes. Dynamic lung compliance was calculated by dividing tidal volume/kg body weight by changes in airway pressure (peak inspiratory pressure minus positive end-expiratory pressure) (mL/kg/cmH2O). Animals were sacrificed 2 h after surfactant administration with an overdose of pentobarbital. End-points are pulmonary gas exchange (arterial pH, PaCO2 and PaO2) and pulmonary mechanics (dynamic compliance, postmortem pressure-volume curves). Each treatment group consisted of n=4-9 animals.
The in vivo pulmonary activity of reduced MB DATK and SMB DATK was investigated in comparison with oxidized SMB and MB (positive controls) and lipids alone (negative control) over 120 min, following intratracheal instillation of these surfactants into ventilated rabbits with ARDS induced by saline lavage. Oxidized SMB and MB were used as positive controls, because these SP-B mimics previously indicated high in vivo surfactant activities equal to those of native, full-length porcine SP-B in ventilated rats with ARDS (Walther et al., “Critical Structural and Functional Roles for the N-terminal Insertion Sequence in Surfactant Protein B Analogs,” PLoS One 5:e8672 (2010), which is hereby incorporated by reference in its entirety). […]

CWLCRALIKRIQAMIDATKRMLPQLVCRLVLRCS (not fully specified (residues 1, 33, bridges); cysteine pairing not given here) [MB DATK_Red]
adsorption activity relative to that previously reported for MB without the DATK substitution ([1]; Table 10 conditions, 3% by weight with 5:3:2 DPPC:POPC:POPG): improved | Oxygenation and lung compliance after instillation (FIG. 1) [2]: increased quickly | relative order of pulmonary activity in terms of oxygenation [2]: reduced SMB DATK˜SMB_Ox˜MB_Ox>reduced MB DATK>Lipids alone | relative pulmonary activity with respect to lung compliance [2]: reduced SMB DATK>SMB_Ox˜reduced MB DATK˜MB_Ox>Lipids alone

FGIPFFPVHLKRLLILLLL-CONH2 (FGIPFFPVHLKRLLILLLL-NH2) [Mini-SPCff_2_leu]
adsorption compared with lung surfactant (CLSE in Table 7) [1]: equaling that of lung surfactant

FPIPLPYCWLCRALIKRIQAMIDATKRMLPQLVCRLVLRCS (not fully specified (residues 8, 40); cysteine pairing not given here) [SMB DATK_Red]
arterial oxygenation and dynamic compliance compared with reduced MB DATK ([2]; FIG. 1, 3.0% by weight in 5:3:2 DPPC:POPC:POPG): significantly higher | Oxygenation and lung compliance after instillation (FIG. 1) [2]: increased quickly | relative order of pulmonary activity in terms of oxygenation [2]: reduced SMB DATK˜SMB_Ox˜MB_Ox>reduced MB DATK>Lipids alone | relative pulmonary activity with respect to lung compliance [2]: reduced SMB DATK>SMB_Ox˜reduced MB DATK˜MB_Ox>Lipids alone

GIPFFPVHLKRLLIKVVVEELIVKVIVGALLMGL (SP-C FF Ion Lock2 K15/E19;E20/K24) [SP-C ion-lock2ff]
adsorption, result in words [1]: substantial rapid adsorption

GIPSSPVHLKRLLIVVVVVELIVKVIVGALLMGL (SP-C SS Ion Lock + L E20/K24) [SP-Css ion-lock]
adsorption, result in words [1]: substantial rapid adsorption | Oxygenation and lung compliance after instillation (FIG. 2) [2]: increased quickly | relative order of pulmonary activity in terms of oxygenation and lung compliance [2]: SP-C33˜SP-Css ion-lock>SP-Cff>Lipids alone

IPSSPVHLKRLKLLKLLLEEILLKILGALLMGL (SP-C33SS Ion Lock2 K15/E19;E20/K24) [SP-C33ss_ion2]
adsorption, result in words [1]: substantial rapid adsorption

IPSSPVHLKRLKLLLLLLLLILLLILGALLMGL (SP-c33) [previously reported SP-C peptide (Almlen et al. 2007)]
Oxygenation and lung compliance after instillation (FIG. 2) [2]: rapidly increased | relative order of pulmonary activity in terms of oxygenation and lung compliance [2]: SP-C33˜SP-Css ion-lock>SP-Cff>Lipids alone

LGIPCFPSSLKRLLIIVVV-CONH2 (chain 1 LGIPCFPSSLKRLLIIVVV-NH2; chain 2 LGIPCFPSSLKRLLIIVVV-NH2; disulfide I:5-II:5 (inferred)) [Mini-C dog cf_cys5 dimer]
adsorption compared with lung surfactant (CLSE in Table 7) [1]: equaling that of lung surfactant

LGIPFFPSSLKRLLIILLL-CONH2 (LGIPFFPSSLKRLLIILLL-NH2) [Mini-SPCff_dog_leu]
adsorption compared with lung surfactant (CLSE in Table 7) [1]: equaling that of lung surfactant

LGIPFFPSSLKRLLIIVVV-CONH2 (LGIPFFPSSLKRLLIIVVV-NH2) [Mini-SPCff_dog]
adsorption compared with lung surfactant (CLSE in Table 7) [1]: equaling that of lung surfactant
